We go through one compound from publication PMC11429909, “Protein Structure Inspired Discovery of a Novel Inducer of Anoikis in Human Melanoma” (Cancers, 2024).

Type in all cases: cell-based, human
For test [1], the system named is breast, prostate, colon, or lung cancer cell lines. The experiment in a line: Eight-day colony formation assays, summary across the cancer cell line panel. To be noted: 8 days. As for the experimental part:
Initial colony formation screening assays were conducted on all acquired compounds and examined at five different compound concentrations. Those meeting efficacy criteria underwent a second-level screen examining nine different compound concentrations. Eight-day colony formation assays of cancer cells were performed as described by us. Briefly, 0.5–1.0 × 10^3 cells were seeded into each well of a 12-well plate. Twenty-four hours later, the compound was added at the following final concentrations: 0 (DMSO-only control), 0.017, 0.12, 0.82, 5.7, and 40 µM. For each concentration, there were N = 2 replicates, i.e., 2 wells. Eight days later, plates were stained with trypan blue, visualized under light microscopy, and groups of three or more cells were scored as colonies. The mean number of colonies was then determined and expressed as the percentage of controls. Second-level screens were performed on compounds inhibiting colony formation by greater than 50% at 40 µM in at least two cell lines. Second-level assays used the following final concentrations of compound: 0 (DMSO only), 0.0061, 0.018, 0.05, 0.16, 0.49, 1.48, 4.44, 13.33, and 40 µM. All compounds were stored under desiccated conditions in a sealed container at minus 20 °C upon arrival. One day prior to use, they were dissolved in DMSO, stored at minus 20 °C as stock solutions, thawed just prior to use, and not reused.
Human hematopoietic stem cell trilineage colony formation assays were performed as previously described by us. Briefly, human cord blood CD34+ cells (catalog #: 70008.5) were purchased from StemCell Technology Inc. and seeded at 1 × 10^4 cells per 35 mm dish. Cells were cultured in MethoCult™ Express (StemCell Technologies, Inc. (Vancouver, BC, Canada)) semisolid media, per the manufacturer’s instructions, in the presence of compound or vehicle (for controls). Compounds were added at final concentrations matching those used in the initial growth assay screens. At eight days, colonies (i.e., groups of ≥10 cells) were counted. At fourteen days, individual colonies of erythroid burst-forming units (BFU-E), colony-forming unit granulocyte–macrophage (CFU-GM), and colony-forming unit granulocyte, erythrocyte, monocyte, and megakaryocyte (CFU-GEMM) were identified based on the manufacturers’ morphologic characterization criteria. Assays were run in replicates of N = 2, and some were run in replicates of N = 4, as denoted. The mean number of colonies was then determined and expressed as the percentage of controls. The effect of each compound on inhibiting the growth of cancer cells relative to its toxic effects on normal bone marrow was evaluated. This was carried out by comparing colonies at 8 days for each cancer cell line to that of bone marrow. This information was used to calculate the efficacy ratio, as follows: efficacy ratio = (percent of remaining cancer cell colonies)/(percent of remaining bone marrow colonies). This was performed for all compounds at 40 µM and for selected compounds at 5.7 µM, as denoted. For compounds nominated for second-level screens, bone marrow colony formation assays were also repeated. Compounds were added at final concentrations matching those used in the initial screens.
We sought to identify compounds that would inhibit the growth of cancer cells, but that also did so selectively. Inhibition of cancer cell growth is a highly sought after attribute of anticancer agents. This was assessed by measuring the ability of a compound to inhibit cell growth in eight-day colony formation assays and examining concentrations ranging from 0.017 to 40 µM. Breast, colon, lung, and prostate cancer are four of the most common types of cancer in the United States, are major causes of cancer cell death, and were examined. […]

A further test has as its system NCI-60 cell lines. In words: NCI-60 cell line screen. To be noted: 48 h at 10 µM. The procedure: The above findings support the importance of Dxr2 and FolC2 sites, and of Dxr2-017 and FolC2-001 compounds, respectively. The NCI-60 cell line screen evaluates compound growth inhibition and cell toxicity in a highly standardized manner across 60 different cell lines. Dxr2-017 and FolC2-001 were evaluated in this assay (Figure S6). NCI-60 screens evaluate cells treated for 48 h at 10 µM with a given compound. […] Of high interest, in the NCI-60 screen, Dxr2-017 had relatively high activity against melanoma cell lines, inducing cell death in five cell lines ranging from 25% to 65%, and inhibiting growth in four cell lines ranging from 76% to 96%. Its impact on cell death represented the most striking relative difference in response across cell lines.

Another test relates to SK-MEL-5 cells. In words: Cell cycle analysis by flow cytometry, SK-MEL-5. To be noted: 50 nM, eight days. As for the experimental part:
A total of 1 × 10^4 M14 cells and 1 × 10^4 SK-MEL-5 cells were seeded into 10 cm culture dishes. Twenty-four hours later, cells were treated in replicates of N = 3, with Dxr2-017 at 20 nM for M14 and 50 nM for SK-MEL-5, or vehicle for controls for a total of eight days, with replacement of media, along with Dxr2-017 or vehicle, at day five. Cells were then collected, filtered to obtain single-cell suspensions, equal numbers of cells were fixed in 1 mL of 70% ethanol at 4 °C for 1 h, washed with PBS, and resuspended in 1 mL of Telford reagent (1 mM EDTA disodium salt, 2.5 U/mL RNAse A, 75 µM Propidium Iodide, and 0.1% Triton X-100 in PBS), and then incubated at 4 °C overnight. Cells were analyzed by flow cytometry (FACSCalibur analyzer, BD Biosciences). Cells were gated on forward scatter (FSC) versus side scatter (SCC) to remove debris, followed by gating of single cells using PI (FL2)-Area versus PI (FL2)-Width. Cell cycle analysis was performed on the PI (FL2)-Area parameter, and the percentages of cells within G0/G1, S, and G2/M phases were determined using Modfit LT 4.0.5.

For the compound `c1ccc2sc(-c3ccc(CNc4ccc5nnnn5n4)o3)nc2c1` [Dxr2-017], the entries for the “efficacy ratio, mean ± SEM over cell lines with ratio below 0.5” value in test [1] (5.7 µM) and in test [1] (40 µM) were 0.25 ± 0.091 and 0.03 ± 0.01, respectively. The “activity in the NCI-60 screen (in words)” value in the test with NCI-60 cell lines was “activity against HT29, MDA-MB-231, and H226”. In addition, the “effect on cell cycle parameters” value in the test on SK-MEL-5 cells is listed as “little-to-no change in cell cycle parameters”.
